Data: patent publication US11918662B2, “Heterocyclic compounds and imaging agents for imaging huntingtin protein” (CHDI Foundation, Inc., priority 2020, dated 2024)
pIC50: −log10 of the molar value. Where two headings read alike, the source gives them in different places.

Biological target: T1, MBP-HTT(1-89)Q46-His(6×) (“Exon1-Q46”) protein aggregates (Homo sapiens, UniProt P42858, INS38QQQQQQQQQQQQQQQQQQQQQQQQQ)
T1 construct: MBP-HTT(1-89)Q46-His(6×); His(6×) (C); made in house
Test: Exon1-Q46 Radioligand Binding Assay
Method: Exon1-Q46 Radioligand Binding Assay
For experiments 30 μM MBP-Exon1-Q46 was incubated with 150 μg/mL thrombin in assay buffer (150 mM NaCl, 50 mM Tris pH 8.0) and 2 mM CaCl2 for 16 hours at 37° C. Aggregated Exon1-Q46 was pelleted by centrifugation for 5 minutes at 13,000 rpm in a bench top centrifuge and re-dissolved in the same volume of assay buffer. […] For the RBA, Q46 protein aggregates and test compounds were pre-incubated in assay buffer for 20 minutes at room temperature, in 100 μL/well in a 96-well plate (pp, round bottom). Then, ligand was added in 50 μL/well and incubated for 60 minutes at 37° C. Final assay concentrations were […] test compound, 1 μM Exon1-Q46 protein (equivalent monomer concentration) and 0.3 nM ligand [^3H3-methyl]-5-((5-methoxypyridin-2-yl)methoxy)-2-(pyrazin-2-yl)benzo[d]oxazole. Samples were transferred onto GF/B filter plates and washed 2× with 200 μL PBS using a Filtermate Harvester. After drying filter plates for 1 hour at 55° C., the back of the plates were sealed with foil and 30 μL/well scintillation fluid (Packard MicroScint 40) added, incubated for 15 minutes in the dark and counted in a MicroBeta reader. […] IC50 values were determined with a sigmoidal inhibition model with four variables (top, bottom, slope, IC50) in a global fit using the normalized replicate data.

[1] = displacement of 0.3 nM [3H3-methyl]-5-((5-methoxypyridin-2-yl)methoxy)-2-(pyrazin-2-yl)benzo[d]oxazole from 1 μM aggregated Exon1-Q46, 60 minutes at 37° C., read-out: Potency Range (IC50)

T1 sequence (P42858 with tags, fused parts or gaps with the stated changes limits assumed): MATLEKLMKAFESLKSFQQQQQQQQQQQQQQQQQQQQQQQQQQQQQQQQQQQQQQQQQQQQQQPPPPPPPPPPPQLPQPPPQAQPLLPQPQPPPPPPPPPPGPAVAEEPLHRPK

pIC50 [1] | SMILES | pIC50
> 7.00 | Cn1ncc2c(=O)n(CCC(=O)Nc3ccc(F)cc3F)c3cc(F)ccc3c21 [Example 9-18, N-(2,4-Difluorophenyl)-3-(7-fluoro-1-methyl-4-oxo-pyrazolo[4,3-c]quinolin-5-yl)propanamide] | 
> 7.00 | Cn1ncc2c(=O)n(CCC(=O)N3CCc4ccccc43)c3cc(F)ccc3c21 [Example 9-2] | 
> 7.00 | Cc1ccccc1NC(=O)CCCn1c(=O)c2cccn2c2ccc(F)cc21 [Example 1-21] | 
> 7.00 | O=C(CCn1c(=O)c2ccnn2c2ccc(F)cc21)N1CCc2ncccc21 [Example 8-4] | 
> 7.00 | C[C@@H]1CN(C(=O)CCn2c(=O)c3cccn3c3ccc(F)cc32)C[C@H]1C [Example 1-49] | 
> 7.00 | C[C@@H]1CN(C(=O)CCCn2c(=O)c3cccn3c3ccc(F)cc32)C[C@@H](C)O1 [Example 1-1, 5-{4-[(2R,6R)-2,6-Dimethylmorpholin-4-yl]-4-oxobutyl}-7-fluoro-4H,5H-pyrrolo[1,2-a]quinoxalin-4-one] | 
> 7.00 | O=c1c2cccn2c2ccc(F)cc2n1CCN1CCc2ccccc2C1 [Example 13-1, 7-Fluoro-5-[2-(1,2,3,4-tetrahydroisoquinolin-2-yl)ethyl]-4H,5H-pyrrolo[1,2-a]quinoxalin-4-one] | 
> 7.00 | O=C(CCCn1c(=O)c2cccn2c2ccc(F)cc21)N1CCCC(C(F)(F)F)C1 (centres unmarked) [Example 1-45] | 
 | CCC[CH2][Sn]([CH2]CCC)([CH2]CCC)[c]1ccc(NC(=O)CCn2c(=O)c3cnn(C)c3c3ccc(F)cc32)c(F)c1 [Example 24-1, 3-{7-Fluoro-1-methyl-4-oxo-1H,4H,5H-pyrazolo[4,3-c]quinolin-5-yl}-N-[2-fluoro-4-(tributylstannyl)phenyl]propanamide] | > 7.00
> 7.00 | C[C@@H]1CN(C(=O)CCCn2c(=O)c3cccn3c3ccc(F)cc32)C[C@H](C)O1 [Example 1-5] | 
> 7.00 | COc1ccccc1NC(=O)CCn1c(=O)c2ccnn2c2ccc(F)cc21 [Example 8-5] | 
> 7.00 | O=C(CCn1c(=O)c2cccn2c2ccc(F)cc21)N1CCC(C(F)(F)F)CC1 [Example 3-42] | 
> 7.00 | Cc1ccc(NC(=O)CCn2c(=O)c3ccnn3c3ccc(F)cc32)nc1 [Example 8-10] | 
> 7.00 | O=C(CCCn1c(=O)c2cccn2c2ccc(F)cc21)Nc1ccccc1 [Example 1-9] | 
6.30 to 7.00 | CN1CCN(C(=O)CCCn2c(=O)c3cccn3c3ccc(F)cc32)CC1 [Example 1-29] | 
> 7.00 | COc1ccc(NC(=O)CCCn2c(=O)c3cccn3c3ccncc32)nc1 [Example 2-5] | 
> 7.00 | COc1ccc(NC(=O)CCCn2c(=O)c3cccn3c3ccncc32)cc1 [Example 2-2] | 
> 7.00 | Cn1ncc2c(=O)n(CCNC(=O)c3ccc(F)cc3F)c3cc(F)ccc3c21 [Example 16-1] | 
> 7.00 | COc1ccc(NC(=O)CCn2c(=O)c3cn(C)nc3c3ccc(F)cc32)nc1 [Example 9-28] | 
> 7.00 | Cc1cccc(NC(=O)CCn2c(=O)c3ccnn3c3ccc(F)cc32)n1 [Example 8-9] | 
> 7.00 | O=C(CCCn1c(=O)c2cccn2c2ccc(F)cc21)Nc1cccc(Cl)c1 [Example 1-22] | 
> 7.00 | O=C(CCn1c(=O)c2cccn2c2ccc(F)cc21)N1CCc2ccncc2C1 [Example 3-52] | 
> 7.00 | O=C(CCn1c(=O)c2cc(F)cn2c2ccc(F)cc21)NCc1ccccn1 [Example 3-62] | 

pIC50 [1] | SMILES | pIC50
> 7.00 | Cc1ccccc1NC(=O)CCn1c(=O)c2cccn2c2ccc(F)cc21 [Example 3-27] | 
> 7.00 | COc1ccc(CCCn2c(=O)c3cccn3c3ccc(F)cc32)cn1 [Example 18-1, 7-Fluoro-5-[3-(6-methoxy-3-pyridyl)propyl]pyrrolo[1,2-a]quinoxalin-4-one] | 
> 7.00 | COc1ccc(C(=O)NCCn2c(=O)c3cccn3c3ccc(F)cc32)nc1 [Example 14-2] | 
> 7.00 | Cc1ccc(NC(=O)CCCn2c(=O)c3cccn3c3ccc(F)cc32)cc1 [Example 1-10] | 
> 7.00 | Cn1ncc2c(=O)n(CCC(=O)N3CCc4ncccc43)c3cc(F)ccc3c21 [Example 9-5] | 
> 7.00 | O=C(CCn1c(=O)c2cccn2c2ccc(F)cc21)NCCc1ccccc1 [Example 3-30] | 
> 7.00 | COc1ccccc1NC(=O)CCn1c(=O)c2cnn(C)c2c2ccc(F)cc21 [Example 9-3] | 
> 7.00 | COc1cccc(NC(=O)CCCn2c(=O)c3cccn3c3ncccc32)c1 [Example 4-3] | 
> 7.00 | COC1CCCN(C(=O)CCCn2c(=O)c3cccn3c3ccc(F)cc32)C1 (centres unmarked) [Example 1-42] | 
> 7.00 | CN1CCN(C(=O)CCCn2c(=O)c3cccn3c3ccc(F)cc32)CC1=O [Example 1-41] | 
> 7.00 | [2H]C([2H])([2H])n1ncc2c(=O)n(CCC(=O)Nc3ccc(F)cc3F)c3cc(F)ccc3c21 [Example 19-3] | 
> 7.00 | O=C(CCCn1c(=O)c2cccn2c2ccc(F)cc21)N1CCCC1 [Example 1-38] | 
> 7.00 | Cn1ncc2c(=O)n(CCC(=O)Nc3cc(F)ccc3F)c3cc(F)ccc3c21 [Example 9-21] | 
> 7.00 | Cc1ccc(NC(=O)CCn2c(=O)c3cccn3c3ccccc32)cc1 [Example 29-4] | 
> 7.00 | COc1cc(NC(=O)CCn2c(=O)c3cccn3c3ccc(F)cc32)ccn1 [Example 3-5] | 
5.00 to 6.30 | Cn1ncc2c(=O)n(CCC(=O)O)c3cc(F)ccc3c21 [Example 9-31] | 
> 7.00 | O=C(CCCn1c(=O)c2cccn2c2ccc(F)cc21)N1CCC(C(F)(F)F)CC1 [Example 1-37] | 
> 7.00 | Cc1cccc(NC(=O)CCn2c(=O)c3cccn3c3ccc(F)cc32)c1 [Example 3-21] | 
> 7.00 | O=C(Cn1c(=O)c2cccn2c2ccc(F)cc21)N1CCCCC1 [Example 29-3] | 
> 7.00 | Cn1ncc2c(=O)n(CCC(=O)Nc3cccc(Cl)c3F)c3cc(F)ccc3c21 [Example 9-19] | 
> 7.00 | Cn1nc(NC(=O)CCn2c(=O)c3cccn3c3ccc(F)cc32)ccc1=O [Example 3-9] | 
> 7.00 | C[C@@H]1CN(C(=O)CCCn2c(=O)c3cccn3c3ccc(F)cc32)C[C@H]1C [Example 1-48] | 
> 7.00 | COc1ccnc(NC(=O)CCn2c(=O)c3cccn3c3ccc(F)cc32)c1 [Example 3-13] | 

pIC50 [1] | SMILES | pIC50
> 7.00 | COc1cccc(NC(=O)CCCn2c(=O)c3cccn3c3ccc(F)cc32)c1 [Example 1-14] | 
> 7.00 | O=C(CCn1c(=O)c2cccn2c2ccc(F)cc21)N1CCCC(C(F)(F)F)C1 (centres unmarked) [Example 3-41] | 
> 7.00 | O=C(CCCn1c(=O)c2cccn2c2ccc(F)cc21)Nc1ccccc1Cl [Example 1-25] | 
> 7.00 | COc1ncccc1NC(=O)CCn1c(=O)c2cnn(C)c2c2ccc(F)cc21 [Example 9-1] | 
> 7.00 | O=C(CCn1c(=O)c2cccn2c2ccc(F)cc21)N1CCc2cnccc21 [Example 3-58] | 
> 7.00 | O=C(CCCn1c(=O)c2cccn2c2ccc(F)cc21)Nc1cccnc1 [Example 1-24] | 
> 7.00 | O=C(CCn1c(=O)c2cccn2c2ccc(F)cc21)Nc1ccc(O)cn1 [Example 10-1, 3-{7-Fluoro-4-oxo-4H,5H-pyrrolo[1,2-a]quinoxalin-5-yl}-N-(5-hydroxypyridin-2-yl)propanamide] | 
> 7.00 | Cn1ncc2c(=O)n(CCC(=O)N3Cc4ccncc4C3)c3cc(F)ccc3c21 [Example 9-12] | 
> 7.00 | C[C@@H]1CN(C(=O)CCn2c(=O)c3cnn(C)c3c3ccc(F)cc32)C[C@H]1C [Example 9-24] | 
> 7.00 | O=C(CCCn1c(=O)c2cccn2c2ccc(F)cc21)Nc1ccccn1 [Example 1-6] | 
> 7.00 | COc1ccc(C(=O)NCCn2c(=O)c3cccn3c3ccccc32)nc1 [Example 14-1, 5-Methoxy-N-(2-{4-oxo-4H,5H-pyrrolo[1,2-a]quinoxalin-5-yl}ethyl)pyridine-2-carboxamide] | 
> 7.00 | COC1CCC(NC(=O)CCn2c(=O)c3cccn3c3ccc(F)cc32)CC1 (centres unmarked) [Example 3-29] | 
6.30 to 7.00 | COC1CCC(NC(=O)CCCn2c(=O)c3cccn3c3ccc(F)cc32)CC1 (centres unmarked) [Example 1-32] | 
6.30 to 7.00 | COc1ccnc(NC(=O)CCCn2c(=O)c3nccn3c3ccc(F)cc32)c1 [Example 5-13] | 
> 7.00 | Cn1ncc2c(=O)n(CCNC(=O)c3ccccc3F)c3cc(F)ccc3c21 [Example 16-2] | 
> 7.00 | O=C(CCn1c(=O)c2ccnn2c2ccc(F)cc21)N1CCc2ccncc21 [Example 8-13] | 
> 7.00 | O=C(CCn1c(=O)c2cccn2c2ccc(F)cc21)NCCc1cccnc1 [Example 3-33] | 
> 7.00 | COC1CCN(C(=O)CCCn2c(=O)c3cccn3c3ccc(F)cc32)C1 (centres unmarked) [Example 1-36] | 
> 7.00 | Cn1ncc2c(=O)n(CCC(=O)Nc3cccc(F)c3F)c3cc(F)ccc3c21 [Example 9-13] | 
> 7.00 | COc1cccc(NC(=O)CCn2c(=O)c3cccn3c3ccc(F)cc32)c1 [Example 3-20] | 
> 7.00 | COc1ccnc(NC(=O)CCCn2c(=O)c3cccn3c3ccccc32)c1 [Example 5-4] | 
> 7.00 | O=C(CCn1c(=O)c2cccn2c2ccc(F)cc21)N1CCCC1 [Example 3-43] | 
